Assay results reported in patent publication US10512271B2, “Method for preventing or treating microbial growth on a manufactured product” (Stellenbosch University, priority 2014, dated 2019).
Square brackets hold non-standard residues; d marks the D form. Peptide text beside a SMILES is read from it. ξ: configuration not given here. Orn = NCCC[C@H](N)C(=O)O; ξP = O=C(O)C1CCCN1

Columns and labels:
[1] = tested on: M. luteus; assay: Cell viability (vitality) assay, low nutrient environment, high cell count; type: cell-based, Micrococcus luteus
Protocol: Treated and untreated matrixes (filters, membrane and films) were punched into 5 mm disks and triplicate disks were transferred to black […] microplates. A mid-log phase M. luteus culture was diluted with LB media to A620 of 0.20 (1.3×10^7 CFU/mL). Each well received […] of the diluted culture ([…]) on top of the 5 mm disk. The plate was incubated at 37° C. for one hour after which 90 μL phosphate-buffered saline (PBS) and 10 μL CellTiter-Blue® Reagent was added to each well. The plate was again incubated for 2 hours at 37° C. After the […] incubation in the low nutrient environment, the fluorescence was determined at an excitation wavelength of 530 nm and emission wavelength of 590 nm. The fluorescence reading was taken with a Varioskan™ Multimode reader from Thermo Scientific™ controlled by Skanit Software 2.4.1 from Thermo Electron. Each plate was shaken for 5 seconds before measurements were taken at 25° C.
Cell viability was calculated using the equation: […]
Different filters, surfaces and nanofibers, treated with Trc extract or GS, were assessed for the more direct short-term killing of M. luteus (sterilisation) using a low nutrient environment, high cell count and the Alamar Blue vitality assay to assess bacterial metabolism. […] This could be due to the limited spreading of the 5 μL culture on the filter, limiting the contact of the bacteria with the rest of the Trc-coated filter, and thus this assay could have underestimated the overall filter activity.

[2] = Wettability of treated filters (water drop size and time to absorption); type: physicochemical
Protocol: The wettability of untreated and GS- and Trc-treated filters were determined to ascertain the effect the peptides have on the hydrophobicity of the filters. Water containing blue food colouring (50 μL) was pipetted onto untreated and treated filters and the filters were monitored for the drop size and time to complete absorption.
The wettability, an indicator of hydrophilic/hydrophobic character, could possibly be altered by the adsorption of peptide, and this change in character would be an indication of the orientation in which in the peptide adsorbed to the various filters. The wettability of untreated and treated filters was determined (Table 3) and the untreated filters were rated in terms of hydrophobicity based on the time it took for a water droplet to completely absorb into the filter. […] Trc treatment made CA much more hydrophilic, while GS also lead to an increase in hydrophilicity, indicating the exposure of the polar amino acids to the surface. Trc made the HAWP filters more hydrophobic, whereas the gramicidin S made the filter more hydrophilic.

[3] = tested on: Micrococcus luteus NCTC 8340; assay: Antibacterial CFU growth assay, high nutrient environment; type: cell-based
Protocol: Micrococcus luteus NCTC 8340 was cultured from a freezer stock on Luria Bertani plates (LB: 1% (w/v) NaCl (Merck), 1% (w/v) tryptone (Merck), 0.5% (w/v) yeast extract (Merck), 1.5% (w/v) agar (BioLab) in analytical grade water) and incubated at 37° C. for a period of 48 hours. A colony inoculate in 20 mL of sterile LB broth was incubated at 37° C. until an A620=0.6 was reached. Peptide-treated matrix and a control untreated matrix were transferred to a LB agar plate (high nutrient environment). The M. luteus culture was diluted to A620 of 0.2, further diluted (2000-10000 fold) and transferred to both treated and untreated filters on the LB plate. Plates were incubated for 48 hours at 37° C., after which the matrixes were inspected for the number of colony forming units (CFU).

[4] = tested on: red blood cells; assay: Haemolytic assay on treated filter disks; type: cell-based; settings: peptide in solution
Protocol: Fresh blood from anonymous donors (obtained from the Western Cape Blood transfusion Service, South Africa) was transferred to a sterile Falcon® tube, filled with sterile phosphate buffered saline (PBS: 4.0% (w/v) NaCl, 0.1% (w/v) KC, 0.72% (w/v) Na2HPO4, 0.1% (w/v) KH2PO4, pH 7.2, 5× concentrated stock solution) and centrifuged at 1200×g for 3 minutes. The supernatant was removed and the process repeated. The supernatant was removed once again and remaining blood cells were used for the assays. A clear 96-well microplate was used for this assay. Three disks of each of the matrixes (treated and untreated) were placed into the wells and 4 wells received 10 μL of gramicidin S as positive haemolytic control (1.0 mg/mL). Blood (100 μL at 2% hematocrit) was pipetted into each of the wells, after which the plates were sealed and incubated at 37° C. for 2 hours. […] The absorbance was measured at 595 nm. Percentage haemolysis was calculated by adapting an equation used for dose response assays (Rautenbach, Gerstner, Vlok, Kulenkamff and Westerhoff, 2005, Anal. Biochem. 350:81-90):
A standard curve of tyrocidine doubling dilution (dose response), starting at 20 μg/mL, was used to determine the amount of Tres leading to lysis. Lysis was determined from the linear part of the dose-response curve using the equation: (% haemolysis−2.38)/5.74=[Trc] μg/mL.

[5] = Peptide adsorbed to filters, change in absorbance (A230) of incubation solution
[6] = tested on: Gram-negative organisms; assay: Activity of treated CL filters against Gram-negative organisms; type: cell-based
[7] = Polycarbonate (PC, 0.45 μm pores)
[8] = Polyvinylidene difluoride (GVLP, 0.22 μm pores)
[9] = Polyvinylidene difluoride (HVLP, 0.45 μm pores)

For `CC(C)C[C@@H]1NC(=O)[C@H](CCCN)NC(=O)[C@H](C(C)C)NC(=O)C2CCCN2C(=O)[C@@H](Cc2ccccc2)NC(=O)[C@H](CC(C)C)NC(=O)[C@H](CCCN)NC(=O)[C@H](C(C)C)NC(=O)C2CCCN2C(=O)[C@@H](Cc2ccccc2)NC1=O` (some centres unmarked) [GS, Cyclo-(VOLfPVOLfP)] (cyclo(L[dF][ξP]V[Orn]L[dF][ξP]V[Orn])), the “short-term killing of M. luteus (sterilisation)” value (from here on “short-term killing of M. luteus”) ([1]; HDC and CL filters, FIG. 3A) was “Good protection”, the “short-term killing of M. luteus” value ([1]; HVLP filter, FIG. 3A) was “good protection” and the “short-term killing of M. luteus” value ([1]; all the other filters except PC, compared with growth assay) was “improved activity”. The “Drop Diameter” value ([2]; Cellulose (CL, No 1)) was greater than 1 cm, the Time until absorbed ([2]; Cellulose (CL, No 1)) was less than 0.167 min and the “induced change in hydrophobicity” value ([2]; Cellulose (CL, No 1)) was “no change”. The “Drop Diameter” value ([2]; Cellulose Acetate (CA)) was 0.85 cm, the Time until absorbed ([2]; Cellulose Acetate (CA)) was 5.01 min and the “induced change in hydrophobicity” value ([2]; Cellulose Acetate (CA)) was “decrease”. The “Drop Diameter” value ([2]; GSWP, 0.22 μm pores) was 0.81 cm, the Time until absorbed ([2]; GSWP, 0.22 μm pores) was 3.55 min and the “induced change in hydrophobicity” value ([2]; GSWP, 0.22 μm pores) was “increase”. The “Drop Diameter” value ([2]; HAWP, 0.45 μm pores) was 0.96 cm, the “induced change in hydrophobicity” value ([2]; HAWP, 0.45 μm pores) was “slight” and the Time until absorbed ([2]; HAWP, 0.45 μm pores, 50 μL water drop) was 2.20 min. The “Drop Diameter” value ([2]; High density cellulose (HDC)) was 0.94 cm, the Time until absorbed ([2]; High density cellulose (HDC)) was greater than 30 min and the “induced change in hydrophobicity” value ([2]; High density cellulose (HDC)) was “slight”. For the same molecule, the “Drop Diameter” value [2, 7] was 0.73 cm, the Time until absorbed [2, 7] was greater than 30 min and the “induced change in hydrophobicity” value [2, 7] was “no change”. For the same molecule, the “Drop Diameter” value [2, 8] was 1.00 cm, the Time until absorbed [2, 8] was 17.25 min and the “induced change in hydrophobicity” value [2, 8] was “increase”. For the same molecule, the “Drop Diameter” value [2, 9] was 0.72 cm, the Time until absorbed [2, 9] was 9.20 min and the “induced change in hydrophobicity” value [2, 9] was “increase”. For the same molecule, the “protection of treated filters against overt colonisation by M. luteus” value ([3]; 48 hour growth assay, low cell count, high nutrient environment, summary of Table 4) was “only protected CL, HDC and HVLP against overt colonisation”, the “M. luteus, detected CFU/cm^2 after 48 h in nutrient rich environment” value (“M. luteus, detected CFU/cm^2 after 48 h” below) ([3]; Cellulose (CL)) was 0 CFU/cm^2 and the “M. luteus, detected CFU/cm^2 after 48 h” value ([3]; Cellulose Acetate (CA)) was 3 ± 1 CFU/cm^2. For the same molecule, the “M. luteus, detected CFU/cm^2 after 48 h” value ([3]; High density cellulose (HDC)) was 0 CFU/cm^2, the “M. luteus, detected CFU/cm^2 after 48 h” value ([3]; Mixed nitrocellulose/cellulose acetate esters (GSWP 0.22 μm)) was 3 ± 1 CFU/cm^2 and the “M. luteus, detected CFU/cm^2 after 48 h” value ([3]; Mixed nitrocellulose/cellulose acetate esters (HAWP, 0.45 μm)) was 4 ± 1 CFU/cm^2. The “M. luteus, detected CFU/cm^2 after 48 h” value ([3]; Polycarbonate (PC, 0.45 um)) was 4 ± 1 CFU/cm^2, the “M. luteus, detected CFU/cm^2 after 48 h” value ([3]; Polyvinylidene difluoride (GVHP, 0.22 μm)) was 3 ± 1 CFU/cm^2 and the “M. luteus, detected CFU/cm^2 after 48 h” value ([3]; Polyvinylidene difluoride (HVLP, 0.45 μm)) was 0 CFU/cm^2. For the same molecule, the “concentration at which lysis of red blood cells starts” value [4] was greater than 10000 ng/mL, the “peptide adsorbed, Absorbance (A230)” value ([5]; GVHP (0.22 μm) filter) was 5.3±1.1 μg/cm^2 and the “peptide adsorbed, Absorbance (A230)” value ([5]; HVLP (0.45 μm) filter) was 2.8±0.6 μg/cm^2. The “peptide adsorbed, Absorbance (A230)” value ([5]; Polycarbonate filter) was 1.2±2.2 μg/cm^2 and the “overt activity against Gram-negative organisms” value [6] was “not demonstrated”.
